In PMC2063170, “A phase I clinical and pharmacokinetic study of the new topoisomerase inhibitor GI147211 given as a 72-h continuous infusion” (British Journal of Cancer, 1998):

Experiments:
[1] = Phase I toxicity (Common Toxicity Criteria), 72-h continuous infusion; settings: for MTD: 72-h infusion
Description: (§1) Brrtish Joumal of Cancer(1998) 78(10). 1329-1336 @ 1998 Cancer Research Campaign A phase I clinical and pharmacokinetic study of the new topoisomerase inhibitor G1147211 given as a 72-h continuous infusion L Paz-Aresl*, R Kunkal 2, D DeMarial-3, J Cassidy' 4, M Alden3, P Beranek2, S Kaye', D Littlefield2, D Reilly3, S Depee2, P Wissel2, C Twelves' and P O'Dwyer3 CRC Department of Medical Oncology. University of Glasgow. Westem Infirmary Hospital. Glasgow Gll 6NT. UK; 2Glaxo Wellcome Research. Five Moore Drive. Research Triangle Park. NC 27709. USA; 'Fox Chase Cancer Center. 7701 Burholme Avenue. Philadelphia, PA 19111. USA: 4Thomas Jefferson University. Kimmel Cancer Institute. Bluemle Life Sciences Building. 233 S. 10th Street. Suite 502. Philadelphia. PA 19107. […] This study was designed to determine the maximum tolerated dose of Gl147211 as a 72-h infusion and to describe its pharmacokinetics and pharmacodynamics on this schedule. In a single-arm, rising-dose study in patients with advanced cancer, eight cohorts of three or more patients received 72-h infusions of G1147211 at doses ranging from 0.25 to 2.5 mg m-2 day-'. […] Whole-blood G1147211 lactone, total blood and total concentrations were measured during and over the 12 h following the infusion. […] Extensive phase 11 evaluation of this compound and further phase I trials evaluating more prolonged infusions are ongoing. Keywords: G1147211: GG211: camptothecin analogues: topoisomerase I inhibitor; phase I trial; pharmacokinetics: pharmacodynamics: continuous infusion GI 147211 (7-4 methyl piperazinomethilene)- 10.1 1 -ethylenedioxy - 20-(S camptothecin: Figure 1) is a totally synthetic analogue of camptothecin. a natural product isolated from Camptotheca acuminata (WAall et al. 1966: Emerson et al. 1995). […] The nuclear enzyvme DNA topoisomerase I. x hich relaxes DNA supercoils arising during, replication and gene tran- scription. has been identified as the specific targret of camptothecin (Hsianer and Liu. 1988: Wall and Wani. 1995).

in vitro models = tested on: in vitro models; design: method as in Slichenmyer et al. 1993: Emerson et al. 1995; settings: ref Slichenmyer et al. 1993: Emerson et al. 1995; cited from earlier work
[2] = Initial stability studies of infusion solution; format: physicochemical; settings: 5% dextrose (average pH 5)
Description: Brrtish Joumal of Cancer(1998) 78(10). 1329-1336 @ 1998 Cancer Research Campaign A phase I clinical and pharmacokinetic study of the new topoisomerase inhibitor G1147211 given as a 72-h continuous infusion L Paz-Aresl*, R Kunkal 2, D DeMarial-3, J Cassidy' 4, M Alden3, P Beranek2, S Kaye', D Littlefield2, D Reilly3, S Depee2, P Wissel2, C Twelves' and P O'Dwyer3 CRC Department of Medical Oncology. University of Glasgow. Westem Infirmary Hospital. Glasgow Gll 6NT. UK; 2Glaxo Wellcome Research. Five Moore Drive. Research Triangle Park. NC 27709. USA; 'Fox Chase Cancer Center. 7701 Burholme Avenue. Philadelphia, PA 19111. USA: 4Thomas Jefferson University. Kimmel Cancer Institute. Bluemle Life Sciences Building. 233 S. 10th Street. Suite 502. Philadelphia. PA 19107. […] This study was designed to determine the maximum tolerated dose of Gl147211 as a 72-h infusion and to describe its pharmacokinetics and pharmacodynamics on this schedule. In a single-arm, rising-dose study in patients with advanced cancer, eight cohorts of three or more patients received 72-h infusions of G1147211 at doses ranging from 0.25 to 2.5 mg m-2 day-'. […] Whole-blood G1147211 lactone, total blood and total concentrations were measured during and over the 12 h following the infusion. […] Extensive phase 11 evaluation of this compound and further phase I trials evaluating more prolonged infusions are ongoing. […]

melanoma cell line Lox = tested on: melanoma cell line Lox; design: method as in Emerson et al. 1995; settings: ref Emerson et al. 1995; cited from earlier work
[3] = Phase I pharmacokinetics, 72-h continuous infusion, whole-blood and urine HPLC
Description: as §1

[4] = heavy pretreatment, 1.2 mg m-2 day-1, n=3
[5] = heavy pretreatment, 1.5 mg m-2 day-1, n=4
[6] = heavy pretreatment, 2.0 mg m-2 day-1, n=1
[7] = minimal pretreatment, 1.5 mg m-2 day-1, n=5
[8] = minimal pretreatment, 1.75 mg m-2 day-1, n=3
[9] = minimal pretreatment, 2.0 mg m-2 day-1, n=10
[10] = minimal pretreatment, 2.5 mg m-2 day-1, n=2

CC[C@@]1(O)C(=O)OCc2c1cc1n(c2=O)Cc2c-1nc1cc3c(cc1c2CN1CCN(C)CC1)OCCO3 [GI147211, 7-4 methyl piperazinomethilene)-10.1 1-ethylenedioxy - 20-(S camptothecin]
Anaemia, patients with worst CTC grade 1 ([1]; 0.25 mg m-2 day-1, n=6): 2 patients | Thrombocytopenia, patients with worst CTC grade 1 ([1]; 0.25 mg m-2 day-1, n=6): 1 patients | Anaemia, patients with worst CTC grade 1 ([1]; 0.50 mg m-2 day-1, n=4): 1 patients | Leucopenia, patients with worst CTC grade 1 ([1]; 0.50 mg m-2 day-1, n=4): 1 patients | Anaemia, patients with worst CTC grade 3 ([1]; 1.0 mg m-2 day-1, n=5): 1 patients | Leucopenia, patients with worst CTC grade 2 ([1]; 1.0 mg m-2 day-1, n=5): 1 patients | Leucopenia, patients with worst CTC grade 3 ([1]; 1.0 mg m-2 day-1, n=5): 1 patients | Neutropenia, patients with worst CTC grade 1 ([1]; 1.0 mg m-2 day-1, n=5): 1 patients | Thrombocytopenia, patients with worst CTC grade 1 ([1]; 1.0 mg m-2 day-1, n=5): 1 patients | Thrombocytopenia, patients with worst CTC grade 4 ([1]; 1.0 mg m-2 day-1, n=5): 1 patients | Patients with central venous catheter associated infections requiring i.v. antibiotics ([1]; 39 patients treated through central venous catheters): Five | Patients complaining of headache while receiving the infusion ([1]; all doses): Twenty | Patients with alopecia ([1]; all doses, 44 patients): 14 patients | Patients with grade I or II nausea ([1]; all doses, 44 patients): Twenty-six | Patients with grade I or II vomiting ([1]; all doses, 44 patients): 16 patients | Patients with grade III vomiting ([1]; all doses, 44 patients): Three | Patients with mild diarrhoea ([1]; all doses, 44 patients): seven | Patients with grade II or III anaemia ([1]; doses > 1.2 mg m-2 day-1): 15 of 29 | Phlebitis at the site of venepuncture ([1]; five patients infused through peripheral veins, doses < 1.0 mg m-2 day-1): All of these patients developed phlebitis | Recommended phase II dose ([1]; heavily pretreated patients): 1.2 mg m-2 day-1 | MTD ([1]; heavily pretreated patients): 1.2 mg m-2 day-1 | Time of platelet nadir after the beginning of the infusion ([1]; heavily pretreated, 1.2 mg m-2 day-1, range 15-22): 18 days | Platelet nadir, median count ([1]; heavily pretreated, 1.2 mg m-2 day-1, range 31-93): 7.5e+10 L⁻¹ | Anaemia, patients with worst CTC grade 1 [1, 4]: 1 patients | Anaemia, patients with worst CTC grade 2 [1, 4]: 2 patients | Leucopenia, patients with worst CTC grade 1 [1, 4]: 1 patients | Leucopenia, patients with worst CTC grade 2 [1, 4]: 1 patients | Neutropenia, patients with worst CTC grade 1 [1, 4]: 1 patients | Thrombocytopenia, patients with worst CTC grade 1 [1, 4]: 2 patients | Thrombocytopenia, patients with worst CTC grade 3 [1, 4]: 1 patients | Anaemia, patients with worst CTC grade 1 [1, 5]: 1 patients | Anaemia, patients with worst CTC grade 2 [1, 5]: 2 patients | Leucopenia, patients with worst CTC grade 3 [1, 5]: 2 patients | Leucopenia, patients with worst CTC grade 4 [1, 5]: 1 patients | Neutropenia, patients with worst CTC grade 4 [1, 5]: 3 patients | Thrombocytopenia, patients with worst CTC grade 4 [1, 5]: 3 patients | Anaemia, patients with worst CTC grade 3 [1, 6]: 1 patients | Leucopenia, patients with worst CTC grade 4 [1, 6]: 1 patients | Neutropenia, patients with worst CTC grade 4 [1, 6]: 1 patients | Thrombocytopenia, patients with worst CTC grade 4 [1, 6]: 1 patients | Induction of diarrhoea ([1]; in contrast to irinotecan): does not induce diarrhoea | Patients with grade IV neutropenia who developed fever ([1]; in vivo, iv): Five of the ten | Anaemia, patients with worst CTC grade 2 [1, 7]: 2 patients | Anaemia, patients with worst CTC grade 3 [1, 7]: 2 patients | Leucopenia, patients with worst CTC grade 2 [1, 7]: 2 patients | Leucopenia, patients with worst CTC grade 4 [1, 7]: 1 patients | Neutropenia, patients with worst CTC grade 3 [1, 7]: 2 patients | Neutropenia, patients with worst CTC grade 4 [1, 7]: 1 patients | Thrombocytopenia, patients with worst CTC grade 1 [1, 7]: 1 patients | Thrombocytopenia, patients with worst CTC grade 2 [1, 7]: 1 patients | Thrombocytopenia, patients with worst CTC grade 3 [1, 7]: 1 patients | Thrombocytopenia, patients with worst CTC grade 4 [1, 7]: 1 patients | Anaemia, patients with worst CTC grade 1 [1, 8]: 1 patients | Anaemia, patients with worst CTC grade 3 [1, 8]: 1 patients | Leucopenia, patients with worst CTC grade 3 [1, 8]: 1 patients | Neutropenia, patients with worst CTC grade 3 [1, 8]: 1 patients | Anaemia, patients with worst CTC grade 1 [1, 9]: 4 patients | Anaemia, patients with worst CTC grade 2 [1, 9]: 4 patients | Anaemia, patients with worst CTC grade 3 [1, 9]: 1 patients | Leucopenia, patients with worst CTC grade 1 [1, 9]: 4 patients | Leucopenia, patients with worst CTC grade 2 [1, 9]: 1 patients | Leucopenia, patients with worst CTC grade 3 [1, 9]: 1 patients | Leucopenia, patients with worst CTC grade 4 [1, 9]: 2 patients | Neutropenia, patients with worst CTC grade 1 [1, 9]: 2 patients | Neutropenia, patients with worst CTC grade 2 [1, 9]: 2 patients | Neutropenia, patients with worst CTC grade 4 [1, 9]: 3 patients | Thrombocytopenia, patients with worst CTC grade 1 [1, 9]: 2 patients | Thrombocytopenia, patients with worst CTC grade 2 [1, 9]: 1 patients | Thrombocytopenia, patients with worst CTC grade 3 [1, 9]: 4 patients | Anaemia, patients with worst CTC grade 3 [1, 10]: 1 patients | Leucopenia, patients with worst CTC grade 3 [1, 10]: 1 patients | Leucopenia, patients with worst CTC grade 4 [1, 10]: 1 patients | Neutropenia, patients with worst CTC grade 4 [1, 10]: 2 patients | Thrombocytopenia, patients with worst CTC grade 3 [1, 10]: 1 patients | Thrombocytopenia, patients with worst CTC grade 4 [1, 10]: 1 patients | Dose at which neutropenia was dose limiting ([1]; minimally pretreated patients): 2.0 mg m-2 day-1 | MTD ([1]; minimally pretreated patients): 2.0 mg m-2 day-1 | Nadir neutrophil count, median value ([1]; minimally pretreated, 2.0 mg m-2 day-1, range 0.02-3.92): 1.59e+09 L⁻¹ | Platelet nadir, median value ([1]; minimally pretreated, 2.0 mg m-2 day-1, range 7-219): 7.2e+10 L⁻¹ | Day of platelet nadir ([1]; minimally pretreated, 2.0 mg m-2 day-1, range 8-20): 15 days | Time of lowest nadir neutrophil count, median ([1]; minimally pretreated, 2.0 mg m-2 day-1, range 10-22): 16.5 days | Dose at which neutropenia and thrombocytopenia were limiting ([1]; more heavily pretreated patients): 1.5 mg m-2 day-1 | Time to recovery of phlebitis ([1]; peripheral vein infusions): 7 to 24 days | Median duration of grade IV neutropenia episodes ([1]; range 1-14): 5 days | Median duration of grade III or IV thrombocytopenia ([1]; range 1-10 days): 4 days | Recommended phase II dose ([1]; untreated/minimally pretreated patients): 1.75 mg m-2 day-1 | Activity relative to topotecan (in vitro models): 2-5 times more active | Stability as a concentrate or as a more dilute solution [2]: stable | 50% growth inhibition concentration (melanoma cell line Lox): 0.592 ng/mL | Css ([3]; at doses of 1.2 mg m-2 day-1 and above): > 1 ng/mL | Clearance, average ([3]; human, in vivo): 1074 ml min-1 m-2 | Mean clearance values, range over the dose range ([3]; human, in vivo): 776-1554 ml min-1 m-2 | Mean terminal elimination half-life ([3]; human, in vivo): 7.5 h | Renal clearance, average ([3]; human, in vivo): 164 ml min- | Clearance, mean ([3]; human, in vivo, 0.25 mg): 776 ml min-1 m-2 | Clearance, mean ([3]; human, in vivo, 0.5 mg): 864 ml min-1 m-2 | Clearance, mean ([3]; human, in vivo, 1 mg): 826 ml min-1 m-2 | Half-life, mean ([3]; human, in vivo, 1 mg): 7.9 h | Clearance, mean ([3]; human, in vivo, 1.2 mg): 1279 ml min-1 m-2 | Half-life, mean ([3]; human, in vivo, 1.2 mg): 6.1 h | Clearance, mean ([3]; human, in vivo, 1.5 mg): 1046 ml min-1 m-2 | Half-life, mean ([3]; human, in vivo, 1.5 mg): 7.4 h | Clearance, mean ([3]; human, in vivo, 2 mg): 1290 ml min-1 m-2 | Half-life, mean ([3]; human, in vivo, 2 mg): 7.2 h | Clearance, mean ([3]; human, in vivo, 2.5 mg): 1554 ml min-1 m-2 | Half-life, mean ([3]; human, in vivo, 2.5 mg): 8.5 h | Total drug recovered unaltered in urine ([3]; in vivo): ~11% | Variation in Css with dose level ([3]; in vivo): two- to threefold | Clearance, mean ([3]; lactone, 1.75 mg m-2 day-1, n=3): 1138 ml min-1 m-2 | Css, mean ([3]; lactone, whole blood, 0.25 mg m-2 day-1, n=6): 0.25 ng/mL | Css, mean ([3]; lactone, whole blood, 1.0 mg m-2 day-1, n=5): 0.86 ng/mL | Css, mean ([3]; lactone, whole blood, 1.2 mg m-2 day-1, n=3): 0.74 ng/mL | Css, mean ([3]; lactone, whole blood, 1.5 mg m-2 day-1, n=10): 1.09 ng/mL | Css, mean ([3]; lactone, whole blood, 1.75 mg m-2 day-1, n=3): 1.10 ng/mL | Css, mean ([3]; lactone, whole blood, 2.0 mg m-2 day-1, n=11): 1.09 ng/mL | Css, mean ([3]; lactone, whole blood, 2.5 mg m-2 day-1, n=2): 1.21 ng/mL | Mean fraction of drug excreted unchanged in the urine (fe) ([3]; total drug in urine, 15 subjects): 0.114 | Total blood concentrations (lactone plus carboxylate) relative to lactone concentrations ([3]; whole blood): approximately four
